Measurements: patent publication US11434248B2, “PDE9 inhibitor and use thereof” (Nanjing TransThera Biosciences Co. Ltd., priority 2017, dated 2022)
Like-named read-outs stand apart in the source and are kept apart here.

What was measured:
human PDE9 = human PDE9 (Homo sapiens (Human), UniProt O76083); conditions: background statement on conventional PDE inhibitors; cited from earlier work
[1] = Stability in human liver microsome
[2] = human
[3] = Rat pharmacokinetic evaluation; format: in vivo, SD male rats; conditions: SD rat; for tz1/2 po (terminal elimination half-life): intragastric 5.0 mg/kg; for tz1/2 iv (terminal elimination half-life): intravenous bolus 1 mg/kg
Description: Experimental Example 4: Rat Pharmacokinetic Evaluation of the Compounds of the Invention
Aim: The in vivo pharmacokinetic parameters of the compounds in SD male rats (purchased from Beijing Vital River Animal Technology Co., Ltd.) were evaluated and bioavailability of the compounds was examined.
Animal Administration and Sample Collection:
The solution of compounds 65, 90, 107, 158 was intragastrically administered to SD rat at a dose of 5.0 mg/kg.
The experimental compound 76 was dissolved in 30% DMF+30% PEG400+40% saline to prepare a solution. The solution of compound 76 was intragastrically administered to SD rat at a dose of 5.0 mg/kg.
The experimental compound 76 was dissolved in 30% DMF+30% PEG400+40% saline to prepare a solution.
The experimental compounds 84 and 96 were dissolved in 5% DMSO+10% PEG400+85% (28% HP-β-CD) saline to prepare a solution. The solution of compounds 84 and 96 was intragastrically administered to SD rat at a dose of 5.0 mg/kg.
The experimental compounds 84 and 96 were dissolved in 5% DMSO+10% PEG400+85% (28% HP-β-CD) saline to prepare a solution.
The animals were fixed. The tail was heated with a water bath at 10 min before each time point. About 100 μL of blood from tail vein was collected, and then placed in an anti-coagulation tube containing EDTA-K2 after collection. Blood samples were centrifuged at 8000 rpm at 4° C. for 6 min to obtain plasma samples.
The concentration of test sample was output using Analyst 1.6.1 from AB SCIEX.

[4] = Canine pharmacokinetic evaluation; conditions: Beagle dogs, n = 3; for F %: dose iv/po 1/2 mg/kg; for AUCinf po / tz1/2 po (terminal elimination half-life): intragastric 2.0 mg/kg; for AUCinf iv / Cl_obs iv (clearance rate) / tz1/2 iv (terminal elimination half-life): intravenous bolus 1 mg/kg
[5] = human liver microsome 0.5 mg protein/mL, compound 1 μM, 37° C.

human PDE9, sequence (O76083 whole entry): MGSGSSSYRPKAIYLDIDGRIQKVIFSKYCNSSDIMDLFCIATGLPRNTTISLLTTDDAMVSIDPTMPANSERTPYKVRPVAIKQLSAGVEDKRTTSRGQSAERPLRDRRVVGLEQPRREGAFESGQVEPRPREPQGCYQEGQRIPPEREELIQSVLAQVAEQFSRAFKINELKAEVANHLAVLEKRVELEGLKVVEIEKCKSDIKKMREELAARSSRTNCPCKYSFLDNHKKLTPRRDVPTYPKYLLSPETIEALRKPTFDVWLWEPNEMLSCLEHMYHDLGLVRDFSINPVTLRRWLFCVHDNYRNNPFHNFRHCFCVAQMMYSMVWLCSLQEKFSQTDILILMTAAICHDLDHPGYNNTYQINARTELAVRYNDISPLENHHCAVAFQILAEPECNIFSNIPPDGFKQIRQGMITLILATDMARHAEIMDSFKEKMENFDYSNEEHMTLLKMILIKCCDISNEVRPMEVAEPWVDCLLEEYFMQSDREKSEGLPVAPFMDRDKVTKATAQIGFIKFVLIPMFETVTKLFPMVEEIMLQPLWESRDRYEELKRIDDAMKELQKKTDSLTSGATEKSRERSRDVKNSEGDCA

CC(C)Cn1c(=O)n(C)c(=O)c2[nH]cnc21 [IBMX]
inhibition activity on PDE9 (human PDE9): no or very low inhibition activity

N#Cc1c(N2CCC3(CC2)CC3)c2cc(C(O)CO)ncc2[nH]c1=O (centres unmarked) [Compound 32, 6-(1,2-dihydroxyethyl)-2-oxo-4-(6-azaspiro[2.5]octane-6-yl)-1,2-dihydro-1,7-naphthyridin-3-carbonitrile]
T½ [1, 5]: →∞ | k [1, 5]: -0.3760 min⁻¹

COC1(C)CCN(c2c(C#N)c(=O)[nH]c3cnc(C(C)(C)O)cc23)CC1 [Compound 109, 6-(2-hydroxypropan-2-yl)-4-(4-methoxy-4-methylpiperidin-1-yl)-2-oxo-1,2-dihydro-1,7-naphthyridine-3-carbonitrile]
k [1, 5]: 0.4444 min⁻¹

COc1ccc(C2CNC(=O)C2)cc1OC1CCCC1 (centres unmarked) [rolipram]
inhibition activity on PDE9 (human PDE9): no or very low inhibition activity

N#Cc1c(N2CCC3(CCC3)CC2)c2cc(N3CC(O)C3)ncc2[nH]c1=O [Compound 51, 6-(3-hydroxyazetidin-1-yl)-2-oxo-4-(7-azaspiro[3.5]nonane-7-yl)-1,2-dihydro-1,7-naphthyridin-3-carbonitrile]
k [2]: 0.9418 min⁻¹

N#Cc1c(N2CCC3(CC2)CC3)c2ccncc2[nH]c1=O [Compound 25, 2-oxo-4-(6-azaspiro[2.5]octane-6-yl)-1,2-dihydro-1,7-naphthyridin-3-carbonitrile]
tz1/2 po (terminal elimination half-life) [3]: 1.40 h | tz1/2 iv (terminal elimination half-life) [3]: 0.51 h | k [2]: 0.0022 min⁻¹ | F % [4]: 99.1% | AUCinf po [4]: 4449 ng·h/mL | tz1/2 po (terminal elimination half-life) [4]: 9.45 h | AUCinf iv [4]: 2244 ng·h/mL | Cl_obs iv (clearance rate) [4]: 7.83 mL/min/kg | tz1/2 iv (terminal elimination half-life) [4]: 10.4 h

N#Cc1c(N2CCCCCC2)c2ccccc2[nH]c1=O [Compound I-8, reference compound]
CLint [1, 5]: 0.1244 mL · min^−1 · mg^−1 proteins | k [1, 5]: 0.727 min⁻¹ | Original drug residual % at 60 min ([1]; human liver microsome 0.5 mg protein/mL, compound 1 μM, β-NADPH 1 mM, 37° C., 60 min): 5.19% | half-life at 1 μM ([1]; human, liver microsomes): 0.186 h

CC(C)(O)c1cc2c(N3CCC4(CC3)CC4)c(C#N)c(=O)[nH]c2cn1 [Compound 84, 6-(2-hydroxypropan-2-yl)-2-oxo-4-(6-azaspiro[2.5]octane-6-yl)-1,2-dihydro-1,7-naphthyridin-3-carbonitrile]
tz1/2 po (terminal elimination half-life) [3]: 3.24 h | tz1/2 iv (terminal elimination half-life) [3]: 1.89 h

Cc1cc2c(N3CCC4(CCC4)CC3)c(C#N)c(=O)[nH]c2cn1 [Compound 65, 6-methyl-2-oxo-4-(7-azaspiro[3.5]nonane-7-yl)-1,2-dihydro-1,7-naphthyridin-3-carbonitrile]
tz1/2 po (terminal elimination half-life) [3]: 2.25 h | tz1/2 iv (terminal elimination half-life) [3]: 1.47 h | F % [4]: 25.5% | AUCinf po [4]: 543 ng·h/mL | tz1/2 po (terminal elimination half-life) [4]: 0.47 h | AUCinf iv [4]: 1065 ng·h/mL | Cl_obs iv (clearance rate) [4]: 15.7 mL/min/kg | tz1/2 iv (terminal elimination half-life) [4]: 0.49 h

CC(C)(O)c1cc2c(N3CCC4(CCC4)CC3)c(C#N)c(=O)[nH]c2cn1 [Compound 82, 6-(2-hydroxypropan-2-yl)-2-oxo-4-(7-azaspiro[3.5]nonane-7-yl)-1,2-dihydro-1,7-naphthyridin-3-carbonitrile]
k [2]: 0.9760 min⁻¹

CNC(=O)c1cc2c(N3CCC4(CC3)CC4)c(C#N)c(=O)[nH]c2cn1 [Compound 96, 3-cyano-N-methyl-2-oxo-4-(6-azaspiro[2.5]octane-6-yl)-1,2-dihydro-1,7-naphthyridin-6-formamide]
tz1/2 iv (terminal elimination half-life) [3]: 0.30 h⁻¹

CC(=O)Nc1ccc(-c2c[nH]c(=O)cn2)cc1 [SKF94120]
inhibition activity on PDE9 (human PDE9): no or very low inhibition activity

CCc1cc2c(N3CCC(C)(OC)CC3)c(C#N)c(=O)[nH]c2cn1 [Compound 107, 6-ethyl-4-(4-methoxy-4-methylpiperidin-1-yl)-2-oxo-1,2-dihydro-1,7-naphthyridin-3-carbonitrile]
k [1, 5]: 0.0023 min⁻¹

OCCN(CCO)c1nc(N2CCCCC2)c2nc(N(CCO)CCO)nc(N3CCCCC3)c2n1 [dipyridamole]
inhibition activity on PDE9 (human PDE9): no or very low inhibition activity

N#Cc1c(N2CC[C@@H](n3cccn3)C2)c2ccncc2[nH]c1=O [Compound 19, (R)-4-(3-(1H-pyrazol-1-yl)pyrrolidin-1-yl)-2-oxo-1,2-dihydro-1,7-naphthyridin-3-carbonitrile]
k [1, 5]: 0.191 min⁻¹

CCc1cc2c(N3CCC4(CC3)CC4)c(C#N)c(=O)[nH]c2cn1 [Compound 76, 6-ethyl-2-oxo-4-(6-azaspiro[2.5]octane-6-yl)-1,2-dihydro-1,7-naphthyridin-3-carbonitrile]
tz1/2 po (terminal elimination half-life) [3]: 9.60 h | tz1/2 iv (terminal elimination half-life) [3]: 0.89 h | k [2]: 0.0015 min⁻¹

N#Cc1c(N2CCC3(CC2)CC3)c2ncccc2[nH]c1=O [Compound 80, 2-oxo-4-(6-azaspiro[2.5]octane-6-yl)-1,2-dihydro-1,5-naphthyridin-3-carbonitrile]
k [2]: 0.9877 min⁻¹

N#Cc1c(N2CCC3(CC2)CC3)c2cc(C(=O)O)ncc2[nH]c1=O [Compound 83, 3-cyano-2-oxo-4-(6-azaspiro[2.5]octane-6-yl)-1,2-dihydro-1,7-naphthyridin-6-carboxylic acid]
T½ [1, 5]: →∞ | k [1, 5]: 0.5421 min⁻¹

CCOC(=O)C1=C[C@]2(CC)CCCN3CCc4c(n1c1ccccc41)[C@@H]32 [vinpocetine]
inhibition activity on PDE9 (human PDE9): no or very low inhibition activity

COc1cc2c(N3CCC4(CCC4)CC3)c(C#N)c(=O)[nH]c2cn1 [Compound 66, 6-methoxy-2-oxo-4-(7-azaspiro[3.5]nonane-7-yl)-1,2-dihydro-1,7-naphthyridin-3-carbonitrile]
T½ [1, 5]: →^ | k [1, 5]: -0.515 min⁻¹

N#Cc1c(N2CCC3(CC2)CC3)c2cc(C(O)C3CC3)ncc2[nH]c1=O (centres unmarked) [Compound 90, 6-(cyclopropyl (hydroxy)methyl)-2-oxo-4-(6-azaspiro[2.5]octane-6-yl)-1,2-dihydro-1,7-naphthyridin-3-carbonitrile]
tz1/2 po (terminal elimination half-life) [3]: 4.49 h | tz1/2 iv (terminal elimination half-life) [3]: 1.48 h | k [2]: 0.0037 min⁻¹

N#Cc1c(N2CCC3(CCC3)CC2)c2cc(N3CC(N)C3)ncc2[nH]c1=O [Compound 53, 6-(3-aminoazetidin-1-yl)-2-oxo-4-(7-azaspiro[3.5]nonane-7-yl)-1,2-dihydro-1,7-naphthyridin-3-carbonitrile]
k [2]: 0.4821 min⁻¹

COC1(C)CCN(c2c(C#N)c(=O)[nH]c3cnccc23)CC1 [Compound 81, 4-(4-methoxy-4-methylpiperidin-1-yl)-2-oxo-1,2-dihydro-1,7-naphthyridin-3-carbonitrile]
k [1, 5]: 0.0012 min⁻¹

COCCOc1cc2c(N3CCC(C)(OC)CC3)c(C#N)c(=O)[nH]c2cn1 [Compound 145, 4-(4-methoxy-4-methylpiperidin-1-yl)-6-(2-methoxyethoxy)-2-oxo-1,2-dihydro-1,7-naphthyridin-3-carbonitrile]
k [1, 5]: 0.0019 min⁻¹
